Measured values as given in a melting point compilation (Tetko et al.; mined from patent text by program, amines drawn as free bases though some values may be those of a salt).

melting point	SMILES
105 to 108 °C	CN1CCN(C(=O)CN2CCN(C(=O)c3cc(C(F)(F)F)cc(C(F)(F)F)c3)[C@H](Cc3c[nH]c4ccccc34)C2)CC1
91.5 to 93 °C	Cc1c(C(=O)O)cccc1-c1cccs1
138 to 139 °C	COC(=O)CCc1ccc(OCC2CN(c3ccccc3)C(=O)O2)cc1 (stereo not given)
203 to 205 °C	CC(C)CN1C2=NCCN2C(=O)C(N=O)=C1N
221 °C	Nc1nc(N)c(-c2ccc(Cl)cc2Cl)c(C(=O)O)n1
249 to 251 °C	CCN1c2ncccc2C(=O)Nc2c(C)cc(OC)nc21
118 to 120 °C	CN(CC1(c2ccccc2)CC(O)=CC(=O)O1)c1ccccc1 (stereo not given)
> 300 °C	CC(C)Oc1nc2cc([N+](=O)[O-])c(-n3ccc(=O)cc3)cc2[nH]c1=NC#N
268 to 269 °C	CC(=O)N[C@H]1CC[C@H](c2ccc(S(N)(=O)=O)cc2)CC1
226 to 228 °C	CN1CCNC1=NC(c1ccccc1)c1ccccc1
84 °C	Cc1ccc(NCc2c(F)c(F)c(C(F)(F)F)c(F)c2F)cc1C(=O)O
57 to 58 °C	CCOCCc1ccc(OCCNc2ncnc(C)c2Cl)c(C)c1
230 °C	CCCc1cc(C)c(OCCO)c(C(Nc2ccc(C(=N)N)cc2)C(=O)O)c1 (racemic)
147 to 148 °C	COc1cc(COc2nn(-c3ccccc3)cc2CC(=O)O)ccc1OCc1nc(-c2ccccc2)oc1C
203 to 205 °C	COc1ccc(N2C(=O)NC(=O)C23CCCCC3)cc1
179 to 180 °C	O=c1[nH]c2cc(Cl)cc(OCCNCc3cccs3)c2[nH]1
142 to 143 °C	CCCCc1oc2ccccc2c1C(=O)NCc1ccc2cc(OCC(=O)OC)ccc2c1
184 to 186 °C	O=C1c2ccccc2-c2c1c1c(c(=O)n2CCCCNS(=O)(=O)c2ccccc2)C=CCC1
94 to 95 °C	Nc1nc(Cn2ncc3cc(C(=O)NC[C@H](NS(=O)(=O)c4cccc5ccccc45)C(=O)O)ccc32)cc(=O)[nH]1
73 to 75 °C	CC(=NOCc1cc(C(F)(F)F)ccc1C(F)(F)F)c1cc(Cl)ccc1NS(=O)(=O)C(F)(F)F
74 to 76 °C	CCCCC[C@@H](COc1ccc(C(=O)O)cc1)c1ccc2c(c1)C(C)(C)CCC2(C)C
114 to 116 °C	CCOC(=O)c1cc(=O)c2c(C)c(Cl)c(C)cc2o1
199 to 200 °C	O=C(Nc1ccc(Cl)cc1)N[C@H]1C[C@H](C(=O)O)Nc2cc(Cl)cc(Cl)c21 (relative stereo)
143 to 145 °C	O=C(Nc1ccc(-n2nc(C(F)(F)F)cc2C(F)(F)F)cc1)c1cccc(C(F)(F)F)c1

melting point	SMILES
109 to 110 °C	CC(=O)Nc1ccc(C(C)(C)C)cc1OC(C)=O
182 to 185 °C	NC(=O)N(O)CCNC(=O)c1ccccc1Oc1ccccc1
170 to 172 °C	O=C(O)Cc1nn(C/C=C/c2cccc(C(F)(F)F)c2F)c(=O)c2ccccc12
68 to 72 °C	Cc1cccc(COc2cccc(COc3ccc4ccccc4n3)c2)c1C(=O)O
96 to 104 °C	CNCc1ccc2cc(OC)ccc2c1
207 to 209 °C	COc1ccc(Cc2ccc3nc(N)nc(N)c3c2)cc1
81 to 83 °C	O=S(=O)(Nc1ccc(OCc2ccc3ccccc3n2)cc1)c1cccc(C(F)(F)F)c1
143 to 145 °C	CC(=O)Oc1ccccc1C(=O)N[C@@H]1CCCC[C@@H]1O[N+](=O)[O-] (relative stereo)
199 to 200 °C	CCOP(=O)(Cc1ccc(NC(=O)/C=C/c2cn(Cc3ccccc3)nc2-c2ccc(F)cc2)cc1)OCC
224 to 227 °C	O=C(O)C1CCc2c(c3cc(O)ccc3n2C(=O)c2ccccc2)C1 (stereo not given)
163 to 165 °C	COC(=O)C(CCSC)N(C(=O)OC(C)(C)C)C(=O)c1ccc(N)c(C)c1 (stereo not given)
186 to 187 °C	O=c1[nH]c2ccc(O)cc2[nH]1
130 to 131 °C	O=c1[nH]c(=O)n(C2CC(OCc3ccc(F)cc3)C(CO)O2)cc1F (stereo not given)
152 to 154 °C	Nc1ccccc1C(=O)NC1CCCCC1
131 to 133 °C	CNC(=O)N(O)C(C)c1ccc(-n2c(C)ccc2C)cc1 (stereo not given)
244 °C	O=C(NCC(=O)N(c1ccccc1)c1ccccc1)Nc1cccc(O)c1
105 to 107 °C	CC1CCc2ccc(CC(=O)O)cc2C(=O)C1 (stereo not given)
141 to 142 °C	CS(=O)(=O)c1ccc(C(O)C(CF)NC(=O)C(F)F)cc1 (stereo not given)
239 to 242 °C	CC(C)OC(=O)N1CCC(c2nc3cc(-c4ccc(C(=O)O)cn4)ccc3o2)CC1
83 to 86 °C	CCCCC(=O)OC1C(O)C(CO)OC1n1cnc2c(OC)nc(N)nc21 (stereo not given)
124 to 125 °C	CC1(C)C(=O)Nc2cc(C=O)ccc2N(CC2CC2)C1=O
58 to 62 °C	COc1cc(CN[C@@H](CC(C)C)C(=O)N2CCN(C(c3ccc(F)cc3)c3ccc(F)cc3)CC2)cc(OC)c1OC
182 to 184 °C	Nc1cc(OCc2cccc(Cl)c2)c(C(=O)O)cc1Cl
168 °C	CCCOC(=O)C1=C(N)NC(C)=C(C(=O)OCC)C1c1cccc([N+](=O)[O-])c1 (stereo not given)

melting point	SMILES
108 to 110 °C	CCCCCCCCOC(=O)c1ccc(OC(=O)c2ccc(C(=O)Oc3ccc(C(=O)OCCCCCCCC)cc3)cc2)cc1
129 to 132 °C	CC(=O)NC1CC(C)(C)N(OC(C)=O)C(C)(C)C1
192 to 195 °C	CCOc1cccc(-c2ccc3c(c2)C=C(C(=O)Nc2ccc(CN(C)C4CCOCC4)cc2)CCS3(=O)=O)c1
212 to 213 °C	COc1cc2ncnc(Nc3ccc(F)c(Cl)c3)c2cc1OCC1(C)COCOC1
224 to 226 °C	O=C1Nc2ccccc2C12COc1ccc(F)cc12 (stereo not given)
111 to 113 °C	COc1cccc(C(C)N(C)CCCOc2ccc(S(=O)(=O)c3c(C(C)C)cn4ccccc34)cc2)c1 (stereo not given)
67 °C	CCCCCCN(O)CCCCCC
130 °C	COc1c([N+](=O)[O-])cc(C=O)c(Cl)c1O
178 to 179 °C	Cc1cccc(Nc2nc(N(C)C)ncc2S(=O)(=O)NC(=O)NC(C)C)c1
295 to 297 °C	Cn1c(=O)c(-c2ccc(Cl)cc2Cl)cc2c3cc(-c4coc(N)n4)ccc3n(C)c21
201 to 203 °C	O=C(O)C1C2C=CC(C2)C1NS(=O)(=O)c1ccc(OCc2ccccc2)cc1 (stereo not given)
136 °C	COC(=O)Cc1cccc(NC(=O)NCC(=O)O)c1
41 to 44 °C	CC(=O)N1CCn2c3c(c4cccc(c42)C1)CCCCCC3
182 to 184 °C	CCOC(=O)N1CCC(=C2c3ccc(Cl)cc3CCc3c(On4nnc5ccccc54)ccnc32)CC1
66 to 68 °C	CCC1(CC)C(=O)N(C(C)(C)C)CC(C)(C)N1OC(C)c1ccc(CCl)cc1 (stereo not given)
77 to 85 °C	NC1CCCCC1C(O)c1ccccc1 (stereo not given)
> 250 °C	Oc1ccc2c(c1)COc1c-2cc2ccc(O)cc2c1-c1ccncc1
143 to 145 °C	C=CC1=C(C(=O)O)C(C(F)(F)F)Oc2ccc(Cl)cc21 (stereo not given)
141 to 143 °C	Cc1cc(Cl)ccc1N1C(=O)CON(C)C1=S
154 to 156 °C	COc1cc(C(C)=O)ccc1OCCN1CCN(c2n[nH]c3cc(Cl)ccc23)CC1
75 to 77 °C	C[C@H](COS(C)(=O)=O)N1C(=O)c2ccccc2C1=O
174 to 175 °C	NS(=O)(=O)c1cc(Br)cc(C(F)(F)F)c1
206 to 208 °C	COc1ccc(CC2CCN(C(=O)C(=O)Nc3ccc(NS(C)(=O)=O)cc3)CC2)cc1
157 °C	O=C1CCSC(=S)N1c1ccccn1

melting point	SMILES
53 to 54 °C	CCc1c(Cl)nc(OCc2ccccc2)nc1OCc1ccccc1
180 to 183 °C	O=Cc1c2ccccc2c(Cl)c2cccc(Cl)c12
229 to 230 °C	COC(=O)c1[nH]c(=O)[nH]c(=O)c1[N+](=O)[O-]
148 °C	CCCCC(F)c1cc(=O)[nH]cn1 (stereo not given)
124 to 125 °C	O=C(C1=Cc2ccccc2C1)C12CC3CC(CC(C3)C1)C2
> 300 °C	CSc1cc2c(cn1)c(=O)n1nc(C)cc1n2C
148 to 149 °C	Cc1c(NC(=O)c2ccc(OC[C@@H]3CCCO3)cc2F)ccc2cc(CNCC(C)(C)O)[nH]c12
92 to 94 °C	CCNC1CCN(c2nc(N3CCOCC3)c3ncnc(N(C)Cc4ccccc4)c3n2)CC1
164 to 166 °C	CCOC(=O)c1c(C)ccnc1Sc1nc(C)c(CC(=O)O)s1
248 to 250 °C	COc1cc2c(Nc3ccc(Cl)cc3F)ncnc2cc1OCCCC(=O)N1CCN(C)CC1
209 to 210 °C	Cc1ccc2c(c1)c1c(CC(=O)N(C)C)nn(-c3ccccc3)c(=O)c1n2C
205 to 207 °C	Cc1cc(OCc2ccccc2)c2cc(C(=O)N(C)C)[nH]c2c1
143 to 145 °C	COC(=O)C(CC(C)C)NC(=O)c1cc([N+](=O)[O-])cc([N+](=O)[O-])c1 (stereo not given)
188 to 189 °C	COc1ccc(-c2sc3ccccc3c2C(=O)c2ccc(O)cc2)cc1
266 to 268 °C	Cc1ccc(-c2ccc(Cl)cc2Cl)c(=O)[nH]1
130 to 132 °C	CCCN1C(=O)N2C[C@@H](Cc3ccccc3)N=C2c2[nH]c(COCc3ccccc3)nc21
125 to 130 °C	COc1ccc(CC[C@H]2CNCCN2)cc1
80 to 83 °C	CC(C)(C)OC(=O)[C@@H]1CC[C@H](CC(=O)N[C@@H](Cc2ccc(OCc3c(Cl)cccc3Cl)cc2)C(=O)O)N1Cc1ccccc1
86 °C	Cc1cc(N)c(Cl)c(C)n1
107 to 108 °C	Cc1cc(C)c2c(c1C)OCC2c1ccc(C2OCCO2)cc1 (stereo not given)
210 to 211 °C	S=c1[nH]ccn1C1Cc2ccccc2C1
184 °C	CC(C)c1ccc(NC(=O)C2CCCc3c(OCc4ccccc4)ccc(F)c32)cn1 (stereo not given)

SMILES	melting point
Cn1c(=O)n(CCCN2CCC3(CC2)C(=O)NCN3c2ccccc2)c2ccccc21	164 °C
O=C1c2ccccc2C(O)(c2ccccc2)N1CCCN1CC=C(c2ccccc2)CC1 (stereo not given)	123 °C
CNC(=O)ON=C(SCC(N)=O)C(C)(C)[N+](=O)[O-]	125 to 127 °C
O=C(CC(F)(F)F)CS(=O)(=O)C(c1ccc(Cl)cc1)c1ccc(Cl)cc1	48 to 50 °C
O=C(CCl)NCC1CCCCC1	85 to 86 °C
COC12CC(CCOC(=O)c3cncc(Br)c3)CN(C)C1Cc1cn(C)c3cccc2c13 (stereo not given)	187 to 190 °C
